Patent US10125135B2, “Chemical compounds” (AstraZeneca AB, priority 2016, dated 2018)

Biological target: estrogen receptor (ERα) in MCF-7 human breast cancer cell line (Homo sapiens (Human), UniProt P03372)
Test: Western blotting assay, MCF-7 cells
Assay type: cell-based
Conditions: 100 nM compound, 48 h; normalised to vehicle (0%) and 100 nM fulvestrant (100%)
Method: The ability of compounds to down-regulate estrogen receptor (ER) was assessed by western blotting using human breast cancer cell lines (MCF-7 and CAMA-1). Cells were plated into 12-well tissue culture-treated plates at 0.5×10^6/well in phenol red-free RPMI containing 2 mM L-glutamine and 5% (v/v) charcoal treated foetal calf serum (F6765, Sigma). Cells were incubated with compounds (100 nM) or vehicle control (0.1% DMSO) for 48 h at 37° C., 5% CO2 before washing once with PBS and lysing with 80 μl lysis buffer (25 mM Tris/HCl, 3 mM EDTA, 3 mM EGTA, 50 mM NaF, 2 mM sodium orthovanadate, 0.27 M sucrose, 10 mM β-glycerophosphate, 5 mM sodium pyrophosphate, 0.5% TritonX-100, pH 6.8) on ice.
Cells were scraped, sonicated and centrifuged prior to performing a protein assay (DC Bio-Rad Protein kit, 500-0116) and making samples to a protein concentration of 1-2 mg/m1 in lysis buffer containing 1× LDS Sample Buffer (NP0007, Invitrogen) and 1× NuPAGE sample reducing agent (NP0009, Invitrogen). Samples were boiled for 10 min at 95° C. and then frozen at −20° C. until ready for use.
10-20 μg protein was loaded onto 26-well Criterion gels (BioRad 345-0034). Gels were run at 125 V for 1 hr 25 min in running buffer (24 mM Tris Base Sigma, 192 mM Glycine, 3.5 mM SDS, made up in distilled water). Gels were then transferred at 30V for 2 hr in transfer buffer (25 mM Tris, 192 mM Glycine, 20% (v/v) methanol, pH 8.3, made up in distilled water) onto nitrocellulose membrane. The blot was stained with Ponceau S (P7170, Sigma) and cut according to appropriate molecular weight markers.
Membranes were blocked for 1 hour at room temp in 5% Marvel (w/v) in phosphate-buffered saline containing 0.05% Tween™ 20 (PBS/Tween). Blots were then incubated with anti-ERα (SP1) rabbit monoclonal antibody (Thermofisher) diluted 1:1000 at 4° C. overnight (with gentle shaking) followed by several washes with PBS/Tween. Secondary anti-rabbit HRP antibody (7074, CST) diluted 1:2000 dilution was incubated for 2 h at room temperature (with gentle shaking) followed by several washes with PBS/Tween. All antibodies were made up in 5% Marvel (w/v) in PBS/Tween.
The immunoblots were developed using Pierce WestDura chemiluminescent reagents (Thermo Scientific 34076) and developed/quantified on the G-box using Syngene software. Down-regulation of the ERα receptor was normalised to the vehicle control (0% down-regulation) and the 100 nM fulvestrant control (100% down-regulation) run within the same gel.

Sequence of estrogen receptor (ERα) in MCF-7 human breast cancer cell line (P03372 whole entry): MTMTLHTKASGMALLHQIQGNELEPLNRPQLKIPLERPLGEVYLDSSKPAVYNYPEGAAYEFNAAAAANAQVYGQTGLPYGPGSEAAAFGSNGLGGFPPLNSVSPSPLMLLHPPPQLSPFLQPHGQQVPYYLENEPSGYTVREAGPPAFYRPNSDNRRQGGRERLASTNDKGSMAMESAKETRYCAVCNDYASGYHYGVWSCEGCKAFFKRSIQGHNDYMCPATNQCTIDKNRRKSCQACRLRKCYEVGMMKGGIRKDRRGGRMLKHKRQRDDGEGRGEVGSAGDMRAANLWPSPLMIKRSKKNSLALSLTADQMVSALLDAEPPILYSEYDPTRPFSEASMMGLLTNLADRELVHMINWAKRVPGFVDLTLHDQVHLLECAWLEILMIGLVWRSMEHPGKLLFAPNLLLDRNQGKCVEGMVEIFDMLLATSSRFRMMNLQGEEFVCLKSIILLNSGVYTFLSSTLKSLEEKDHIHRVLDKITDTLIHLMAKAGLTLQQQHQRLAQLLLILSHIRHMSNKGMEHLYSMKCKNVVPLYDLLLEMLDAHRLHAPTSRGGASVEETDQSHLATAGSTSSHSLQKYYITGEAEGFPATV

Row | SMILES | MCF7 Western % ER deg vs Fv
1 | COc1cc(OCCN2CC(CF)C2)ccc1[C@@H]1c2ccc3[nH]ncc3c2C[C@@H](C)N1CC(C)(C)F [Example 5, (6S,8R)-7-(2-fluoro-2-methylpropyl)-6-(4-(2-(3-(fluoromethyl)azetidin-1-yl)ethoxy)-2-methoxyphenyl)-8-methyl-6,7,8,9-tetrahydro-3H-pyrazolo[4,3-f]isoquinoline] | 69%
2 | C[C@@H]1Cc2c(ccc3[nH]ncc23)[C@@H](c2ccc(OCCN3CC(CF)C3)cn2)N1CC1(F)CC1 [Example 8, (6S,8R)-7-((1-fluorocyclopropyl)methyl)-6-(5-(2-(3-(fluoromethyl)azetidin-1-yl)ethoxy)pyridin-2-yl)-8-methyl-6,7,8,9-tetrahydro-3H-pyrazolo[4,3-f]isoquinoline] | 80%
3 | COc1cc(OCCN2CC(CF)C2)ccc1[C@@H]1c2ccc3[nH]ncc3c2C[C@@H](C)N1CC(C)C [Example 9, (6S,8R)-6-(4-(2-(3-(fluoromethyl)azetidin-1-yl)ethoxy)-2-methoxyphenyl)-7-isobutyl-8-methyl-6,7,8,9-tetrahydro-3H-pyrazolo[4,3-f]isoquinoline] | 97%
4 | C[C@@H]1Cc2c(ccc3[nH]ncc23)[C@@H](c2ccc(OCCN3CC(CF)C3)cn2)N1CC(F)F [Example 51, (6S,8R)-7-(2,2-difluoroethyl)-6-(5-(2-(3-(fluoromethyl)azetidin-1-yl)ethoxy)pyridin-2-yl)-8-methyl-6,7,8,9-tetrahydro-3H-pyrazolo[4,3-f]isoquinoline] | 97%
5 | COc1cc(OCCN2CC(CF)C2)ccc1[C@@H]1c2ccc3[nH]ncc3c2C[C@@H](C)N1CC1(F)CC1 [Example 6, (6S,8R)-7-((1-fluorocyclopropyl)methyl)-6-(4-(2-(3-(fluoromethyl)azetidin-1-yl)ethoxy)-2-methoxyphenyl)-8-methyl-6,7,8,9-tetrahydro-3H-pyrazolo[4,3-f]isoquinoline] | 77%
6 | C[C@@H]1Cc2c(ccc3[nH]ncc23)[C@@H](c2ccc(OCCN3CC(CF)C3)cn2)N1CC(F)(F)F [Example 49, (6S,8R)-6-(5-(2-(3-(fluoromethyl)azetidin-1-yl)ethoxy)pyridin-2-yl)-8-methyl-7-(2,2,2-trifluoroethyl)-6,7,8,9-tetrahydro-3H-pyrazolo[4,3-f]isoquinoline] | 98%
